# Test results as given in patent publication US5714490A, “Tetrahydrofuran antifungals” (Schering Corporation, priority 1995, dated 1998).
# Legend:
# [1] = serum levels, half life and tissue distribution after oral dosing; format: in vivo, mice, rats, dogs and monkeys
# [2] = tested on: cytochrome P-450 liver drug metabolizing enzymes; assay: induction of liver drug metabolizing enzymes in an in vivo rat model; settings: oral administration
# [3] = tested on: Aspergillus; assay: in vitro broth dilution MFC against Aspergillus; format: cell-based, Aspergillus flavus, fumigatus and other species; settings: 37 strains
# Description: (§1) The in vitro antifungal activity tests were performed via conventional broth dilution methods in Sabouraud dextrose broth ("SDB") medium and Eagles Minimum Essential Medium ("EMEM") against a large number of fungi. Minimum Inhibitory Concentrations ("MICs") were measured after 24, 48 and 72 hour tests. In many cases, Minimum Fungicidial Concentrations ("MFCS") were measured after 48 and 72 hours.
# [4] = tested on: Candida glabrata; assay: in vitro broth dilution MIC against Candida glabrata; format: cell-based; settings: 9 strains
# Description: as §1
# [5] = tested on: Dermatophytes; assay: in vitro broth dilution MFC against Dermatophytes; format: cell-based, T. rubrum, T. mentagrophytes, and T. tonsurans; settings: 6 strains
# Description: as §1
# [6] = tested on: Candida krusei; assay: in vitro broth dilution MFC against Candida krusei; format: cell-based; settings: 16 strains
# Description: as §1
# [7] = tested on: Cryptococcus neoformans; assay: in vitro broth dilution MFC against Cryptococcus neoformans; format: cell-based; settings: 3 strains
# Description: as §1
# [8] = tested on: Aspergillus; assay: in vitro broth dilution MIC against Aspergillus; format: cell-based, Aspergillus flavus, fumigatus and other species; settings: 37 strains
# Description: as §1
# [9] = tested on: Candida albicans; settings: 26 strains
# Description: as §1
# [10] = tested on: Candida albicans; assay: in vitro broth dilution MIC against Candida albicans; format: cell-based; settings: 26 strains
# Description: as §1
# [11] = tested on: Cryptococcus neoformans; assay: in vitro broth dilution MIC against Cryptococcus neoformans; format: cell-based; settings: 3 strains
# Description: as §1
# [12] = tested on: Candida tropicalis & stellatoidea; settings: 5 strains
# Description: as §1
# [13] = tested on: Candida glabrata; assay: in vitro broth dilution MFC against Candida glabrata; format: cell-based; settings: 9 strains
# Description: as §1
# [14] = tested on: Candida krusei; assay: in vitro broth dilution MIC against Candida krusei; format: cell-based; settings: 16 strains
# Description: as §1
# [15] = tested on: Candida tropicalis & stellatoidea; assay: in vitro broth dilution MIC against Candida tropicalis & stellatoidea; format: cell-based; settings: 5 strains
# Description: as §1
# [16] = tested on: Dermatophytes; assay: in vitro broth dilution MIC against Dermatophytes; format: cell-based, T. rubrum, T. mentagrophytes, and T. tonsurans; settings: 6 strains
compound,measurement,setting,value
CC[C@@H]([C@H](C)O)n1ncn(-c2ccc(N3CCN(c4ccc(OC[C@@H]5CO[C@@](Cn6cncn6)(c6ccc(F)cc6F)C5)cc4)CC3)cc2)c1=O [drawing 20],serum half lives,[1]; O.D. dosing,very long serum half lives
same,tissue distribution,[1]; O.D. dosing,good tissue distribution
same,serum levels compared to azoles of similiar structure,"[1]; oral dosing, methyl cellulose formulation, mice, rats, dogs and monkeys",consistently higher serum levels
same,induction of cytochrome P-450 liver drug metabolizing enzymes,[2],not inducers
CC[C@@H]([C@@H](C)O)n1ncn(-c2ccc(N3CCN(c4ccc(OC[C@@H]5CO[C@@](Cn6cncn6)(c6ccc(F)cc6F)C5)cc4)CC3)cc2)c1=O,PERCENTAGE OF STRAINS WITH MFCs ≤1 MCG/ML,[3],89 PERCENTAGE
same,PERCENTAGE OF STRAINS WITH MICs ≤1 MCG/ML,[4],33 PERCENTAGE
same,PERCENTAGE OF STRAINS WITH MFCs ≤1 MCG/ML,[5],100 PERCENTAGE
same,PERCENTAGE OF STRAINS WITH MFCs ≤1 MCG/ML,[6],100 PERCENTAGE
CC[C@@H]([C@H](C)O)n1ncn(-c2ccc(N3CCN(c4ccc(OC[C@@H]5CO[C@@](Cn6cncn6)(c6ccc(F)cc6F)C5)cc4)CC3)cc2)c1=O [drawing 22],PERCENTAGE OF STRAINS WITH MFCs ≤1 MCG/ML,[3],62 PERCENTAGE
same,PERCENTAGE OF STRAINS WITH MFCs ≤1 MCG/ML,[5],83 PERCENTAGE
same,PERCENTAGE OF STRAINS WITH MFCs ≤1 MCG/ML,[6],94 PERCENTAGE
CC[C@H]([C@H](C)O)n1ncn(-c2ccc(N3CCN(c4ccc(OC[C@@H]5CO[C@@](Cn6cncn6)(c6ccc(F)cc6F)C5)cc4)CC3)cc2)c1=O,PERCENTAGE OF STRAINS WITH MFCs ≤1 MCG/ML,[7],100 PERCENTAGE
same,PERCENTAGE OF STRAINS WITH MICs ≤1 MCG/ML,[8],100 PERCENTAGE
same,PERCENTAGE OF STRAINS WITH MFCs ≤1 MCG/ML,[9],100 PERCENTAGE
same,PERCENTAGE OF STRAINS WITH MFCs ≤1 MCG/ML,[3],50 PERCENTAGE
same,PERCENTAGE OF STRAINS WITH MICs ≤1 MCG/ML,[10],100 PERCENTAGE
same,PERCENTAGE OF STRAINS WITH MICs ≤1 MCG/ML,[11],100 PERCENTAGE
same,PERCENTAGE OF STRAINS WITH MICs ≤1 MCG/ML,[4],22 PERCENTAGE
same,PERCENTAGE OF STRAINS WITH MFCs ≤1 MCG/ML,[12],100 PERCENTAGE
same,PERCENTAGE OF STRAINS WITH MFCs ≤1 MCG/ML,[5],67 PERCENTAGE
same,PERCENTAGE OF STRAINS WITH MFCs ≤1 MCG/ML,[6],88 PERCENTAGE
same,PERCENTAGE OF STRAINS WITH MFCs ≤1 MCG/ML,[13],22 PERCENTAGE
same,PERCENTAGE OF STRAINS WITH MICs ≤1 MCG/ML,[14],100 PERCENTAGE
same,PERCENTAGE OF STRAINS WITH MICs ≤1 MCG/ML,[15],100 PERCENTAGE
same,PERCENTAGE OF STRAINS WITH MICs ≤1 MCG/ML,[16],100 PERCENTAGE
